Experimental findings from ChEMBL document CHEMBL4000245, “Discovery and biological evaluation of some (1H-1,2,3-triazol-4-yl)methoxybenzaldehyde derivatives containing an anthraquinone moiety as potent xanthine oxidase inhibitors” (Bioorg Med Chem Lett, 2017) are described below.

Data set [1] deals with T1, Xanthine dehydrogenase/oxidase (Bos taurus, UniProt P80457). Kind of data set: Inhibition of bovine xanthine oxidase assessed as reduction in uric acid levels at 50 uM using xanthine as substrate after 120 mins by spectrophotometry. To be noted: cattle, 2 h.
T1 sequence (P80457 whole entry): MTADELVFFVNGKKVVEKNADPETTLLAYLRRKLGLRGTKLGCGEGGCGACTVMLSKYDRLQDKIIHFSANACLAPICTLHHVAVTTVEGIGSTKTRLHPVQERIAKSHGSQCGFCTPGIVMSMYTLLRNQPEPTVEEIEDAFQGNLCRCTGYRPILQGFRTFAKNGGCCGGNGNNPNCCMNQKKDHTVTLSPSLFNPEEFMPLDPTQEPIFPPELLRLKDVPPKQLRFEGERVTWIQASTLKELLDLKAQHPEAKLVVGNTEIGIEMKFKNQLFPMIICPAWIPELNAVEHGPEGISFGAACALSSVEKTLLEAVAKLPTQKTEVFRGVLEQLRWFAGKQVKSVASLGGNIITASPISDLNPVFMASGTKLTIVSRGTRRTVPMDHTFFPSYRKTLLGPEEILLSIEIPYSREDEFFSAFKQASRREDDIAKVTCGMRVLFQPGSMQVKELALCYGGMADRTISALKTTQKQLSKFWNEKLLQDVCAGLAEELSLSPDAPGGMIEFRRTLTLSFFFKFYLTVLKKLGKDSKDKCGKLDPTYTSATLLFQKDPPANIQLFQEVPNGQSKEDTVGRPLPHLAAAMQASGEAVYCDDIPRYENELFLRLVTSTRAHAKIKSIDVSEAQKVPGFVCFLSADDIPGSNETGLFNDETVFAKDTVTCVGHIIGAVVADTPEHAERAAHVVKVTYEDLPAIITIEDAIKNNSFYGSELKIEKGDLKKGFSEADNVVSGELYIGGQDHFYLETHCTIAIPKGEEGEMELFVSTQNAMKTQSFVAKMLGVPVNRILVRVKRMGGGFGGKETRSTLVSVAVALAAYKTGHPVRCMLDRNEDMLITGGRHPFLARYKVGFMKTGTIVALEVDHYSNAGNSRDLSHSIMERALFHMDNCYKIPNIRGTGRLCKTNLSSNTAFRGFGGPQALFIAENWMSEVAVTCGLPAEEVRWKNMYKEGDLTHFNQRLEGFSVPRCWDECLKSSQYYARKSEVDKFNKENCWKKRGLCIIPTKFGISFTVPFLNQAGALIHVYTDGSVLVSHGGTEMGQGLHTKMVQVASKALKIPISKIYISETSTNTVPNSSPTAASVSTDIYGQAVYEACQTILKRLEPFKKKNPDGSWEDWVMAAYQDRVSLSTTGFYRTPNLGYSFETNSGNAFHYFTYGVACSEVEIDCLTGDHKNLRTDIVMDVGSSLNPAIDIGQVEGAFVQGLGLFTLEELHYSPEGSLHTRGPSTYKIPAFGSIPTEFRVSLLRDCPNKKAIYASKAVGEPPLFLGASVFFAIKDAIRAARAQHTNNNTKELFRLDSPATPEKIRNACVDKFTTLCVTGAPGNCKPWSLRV
Data set [2] concerns the target T1, Xanthine dehydrogenase/oxidase. In words: Inhibition of bovine xanthine oxidase assessed as reduction in uric acid levels using xanthine as substrate after 120 mins by spectrophotometry.
The target is the same in data set [3]. In words: Mixed-type inhibition of bovine xanthine oxidase assessed as enzyme-inhibitor complex using xanthine as substrate after 60 secs by Lineweaver-Burk plot method.
The target is the same in data set [4]. In words: Potency index, ratio of allopurinol IC50 to compound IC50 for inhibition of bovine xanthine oxidase. To be noted: cattle.
Data set [5] shares this target. Kind of data set: Mixed-type inhibition of bovine xanthine oxidase assessed as enzyme-inhibitor-substrate complex using xanthine as substrate after 60 secs by Lineweaver-Burk plot method.

The structures appear in SMILES notation. Where only a bound is given, the exact number is not on record here.

As for `CC(=O)Nc1ccc(OCc2cn(Cc3ccc4c(c3)C(=O)c3ccccc3C4=O)nn2)cc1`, the inhibition at 50 µM in data set [1] was 20.1%.

`O=Cc1cc(F)ccc1OCc1cn(Cc2ccccc2)nn1`: in data set [2], the IC50 is 21.5 µM. Also, in data set [1], the inhibition at 50 µM came to 83.4%.

In the case of `O=C1c2ccccc2C(=O)c2cc(Cn3cc(COc4c(Cl)cccc4Cl)nn3)ccc21`, the inhibition at 50 µM in data set [1] came to 12.7%.

Turning to `O=Cc1ccc(F)cc1OCc1cn(Cc2ccc3c(c2)C(=O)c2ccccc2C3=O)nn1`, the IC50 in data set [2] stood at 6.5 µM. Further, the inhibition at 50 µM in data set [1] came out at 70.8%.

As for `O=Cc1ccccc1OCc1cn(Cc2ccc3c(c2)C(=O)c2ccccc2C3=O)nn1`, the Ki in data set [3] is 0.57 µM; in data set [5], 0.94 µM. For the same compound, the “Ratio IC50” value in data set [4] was greater than 10. Also, the IC50 in data set [2] came out at 0.6 µM. Further, the inhibition at 50 µM in data set [1] is 90.7%.

Regarding `O=C(O)c1ccccc1OCc1cn(Cc2ccc3c(c2)C(=O)c2ccccc2C3=O)nn1`, the inhibition at 50 µM in data set [1] was found to be 24.2%.

Consider `O=Cc1cc(Cl)ccc1OCc1cn(Cc2ccc3c(c2)C(=O)c2ccccc2C3=O)nn1`, for which the IC50 in data set [2] was 46.5 µM. Further, in data set [1], the inhibition at 50 µM amounted to 61.1%.

Consider `O=C1c2ccccc2C(=O)c2cc(Cn3cc(COc4ccccc4)nn3)ccc21`, for which the inhibition at 50 µM in data set [1] was 18.4%.

As to `O=C1c2ccccc2C(=O)c2cc(Cn3cc(CO)nn3)ccc21`, in data set [1], the inhibition at 50 µM worked out at 31%.

For the compound `COc1cc(C=O)cc(OC)c1OCc1cn(Cc2ccc3c(c2)C(=O)c2ccccc2C3=O)nn1`, in data set [2], the IC50 was determined as 16.8 µM. Also, in data set [1], the inhibition at 50 µM came out at 70.3%.

Turning to `O=Cc1cc(Br)ccc1OCc1cn(Cc2ccc3c(c2)C(=O)c2ccccc2C3=O)nn1`, the inhibition at 50 µM in data set [1] is 21.1%.

Take `N#Cc1ccc(OCc2cn(Cc3ccc4c(c3)C(=O)c3ccccc3C4=O)nn2)cc1`: the inhibition at 50 µM in data set [1] was 7%.

For the compound `CCCCCCn1cc(COc2ccccc2C=O)nn1`, in data set [1], the inhibition at 50 µM stood at 43.5%.

As for `CCN(CC)c1ccc(C=O)c(OCc2cn(Cc3ccc4c(c3)C(=O)c3ccccc3C4=O)nn2)c1`, in data set [1], the inhibition at 50 µM worked out at 9.8%.

With `CCCCCCn1cc(COc2ccc(F)cc2C=O)nn1`, the IC50 in data set [2] is 9 µM. For the same compound, in data set [1], the inhibition at 50 µM came to 93%.

Consider `O=Cc1cc(F)ccc1OCc1cn(Cc2ccc3c(c2)C(=O)c2ccccc2C3=O)nn1`, for which the “Ratio IC50” value in data set [4] is greater than 10. In addition, the IC50 in data set [2] came to 0.8 µM. The inhibition at 50 µM in data set [1] is 88%.

In the case of `O=Cc1cccc(OCc2cn(Cc3ccc4c(c3)C(=O)c3ccccc3C4=O)nn2)c1`, the IC50 in data set [2] was determined as 15.1 µM. In addition, in data set [1], the inhibition at 50 µM was determined as 77.2%.

For the compound `O=Cc1ccccc1OCc1cn(Cc2ccccc2)nn1`, the inhibition at 50 µM in data set [1] was determined as 46.7%.

Regarding `O=Cc1ccc(OCc2cn(Cc3ccc4c(c3)C(=O)c3ccccc3C4=O)nn2)cc1`, in data set [2], the IC50 stood at 30.5 µM. Also, the inhibition at 50 µM in data set [1] stood at 67.5%.

On to `CC(=O)OCc1cn(Cc2ccc3c(c2)C(=O)c2ccccc2C3=O)nn1`, for which, in data set [1], the inhibition at 50 µM was determined as 19.4%.

`Oc1ncnc2[nH]ncc12` [ALLOPURINOL]: the inhibition at 50 µM in data set [1] was found to be 95.1%.

In general, inhibition refers to the share of the control response that was lost under treatment. One may read the IC50 as the midpoint of a concentration-inhibition curve. By Ki is commonly meant a dissociation constant, usually derived from enzyme kinetics or from competition with a known ligand.
